Tested on: Human Glioma cancer cell line U251
Assay: Cell Proliferation Assay by CCK-8 Reagent
Type: cell-based
Conditions: U251 cells, 72 hours incubation, CCK-8, % viability vs vehicle control
Experimental: Human Glioma cancer cell line U251 was maintained in DMEM (Gibco, Cat #10569-10) supplemented with 10% fetal bovine serum inactivated at 56° C. (Gibco, Cat #10082-147), 100 U/mL penicillin, and 100 μg/mL streptomycin (Gibco, Cat #15140-122) at 37° C. and 1% MEM non-essential amino acid (Sigma, Cat #M7145) in a humid atmosphere containing 5% CO2. The cells were seeded at 2.5×10^3 cells/well in a 96 well plate (BD falcon, Cat #353072) with 200 pt volume/well and kept in 37° C./5% CO2 incubator for 0/N incubation. The seeding density was optimized previously based on growth curve. On the next day, plated cells were incubated with each test compounds at eight different concentrations (100, 50, 25, 12.5, 6.25, 3.125, 1.5 and 0.78) in triplicates. DMSO was used as a Vehicle control and Culture medium was used as blank control for the assay in each plate. The percentage of DMSO was kept uniform across the plate as <1%. The compound treated cells were incubated in 37° C./5% CO2 incubator for 72 hours. After incubation period, […] CCK-8 reagent (Dojindo, Cat #CK04) was added in all the wells and plate was kept in 37° C./5% CO2 incubator for 3 hours. After CCK-8 incubation, absorbance was measured @ 450 nm using Spectrophotometer (BMG, Omega Polar Star). % Viability values at each concentration were calculated with respect to Vehicle control and EC50 values were calculated using graph pad prism software and are shown in Table A.

| Compound | EC50 | EC50 (Homo sapiens, U-251, 72 h) |
| --- | --- | --- |
| CNC(=O)OC1(CCN(C)CCCc2nc3ccccc3[nH]2)COc2cc(F)ccc2[C@@H]1C(C)C (single isomer, unassigned) [Example 20A] | 54 µM | – |
| CNC(=O)OC1(CCN(C)CCCc2nc3ccccc3[nH]2)COc2cc(F)ccc2[C@@H]1C(C)C (single isomer, unassigned) [Example 20B] | 12 µM | – |
| CNC(=O)O[C@]1(CCN(C)CCCc2nc3ccccc3[nH]2)CCc2cc(F)ccc2[C@@H]1C(C)C [Example 1, (1S,2S)-2-(2-((3-(1H-Benzo[d]imidazol-2-yl)propyl)(methyl)amino)ethyl)-6-fluoro-1-isopropyl-1,2,3,4-tetrahydronaphthalen-2-yl methylcarbamate] | – | 6 µM |
| COC(=O)O[C@]1(CCN(C)CCCc2nc3ccccc3[nH]2)CCc2cc(F)ccc2[C@@H]1C(C)C [Example 2, (1S,2S)-2-(2-((3-(1H-Benzo[d]imidazol-2-yl)propyl)(methyl)amino)ethyl)-6-fluoro-1-isopropyl-1,2,3,4-tetrahydronaphthalen-2-yl methylcarbonate] | – | 10 µM |
| CNC(=O)O[C@]1(CCN(C)CCCc2nc3c(C)ccc(C)c3[nH]2)CCc2cc(F)ccc2[C@@H]1C(C)C [Example 3, (1S,2S)-2-(2-((3-(4,7-Dimethyl-1H-benzo[d]imidazol-2-yl)propyl)(methyl)amino)ethyl)-6-fluoro-1-isopropyl-1,2,3,4-tetrahydronaphthalen-2-yl methylcarbamate] | – | 6 µM |
| Cc1ccc(C)c2[nH]c(CCCN(C)CC[C@@]3(OC(=O)NCCN(C)C)CCc4cc(F)ccc4[C@@H]3C(C)C)nc12 [Example 4, (1S,2S)-2-(2-((3-(4,7-Dimethyl-1H-benzo[d]imidazol-2-yl)propyl)(methyl)amino)ethyl)-6-fluoro-1-isopropyl-1,2,3,4-tetrahydronaphthalen-2-yl (2-(dimethylamino)ethyl)carbamate] | – | 2.5 µM |
| CNC(=O)O[C@]1(CCN(C)CCCc2nc3c(OC)ccc(OC)c3[nH]2)CCc2cc(F)ccc2[C@@H]1C(C)C [Example 5, (1S,2S)-2-(2-((3-(4,7-Dimethoxy-1H-benzo[d]imidazol-2-yl)propyl)(methyl)amino)ethyl)-6-fluoro-1-isopropyl-1,2,3,4-tetrahydronaphthalen-2-yl methylcarbamate] | – | 10 µM |
| COCCNC(=O)O[C@]1(CCN(C)CCCc2nc3c(OC)ccc(OC)c3[nH]2)CCc2cc(F)ccc2[C@@H]1C(C)C [Example 6, (1S,2S)-2-(2-((3-(4,7-Dimethoxy-1H-benzo[d]imidazol-2-yl)propyl)(methyl)amino)ethyl)-6-fluoro-1-isopropyl-1,2,3,4-tetrahydronaphthalen-2-yl (2-methoxyethyl)carbamate] | – | 15 µM |
| COc1ccc(Cl)c2[nH]c(CCCN(C)CC[C@@]3(OC(=O)N(C)C)CCc4cc(F)ccc4[C@@H]3C(C)C)nc12 [Example 7, (1S,2S)-2-(2-((3-(7-Chloro-4-methoxy-1H-benzo[d]imidazol-2-yl)propyl)(methyl)amino)ethyl)-6-fluoro-1-isopropyl-1,2,3,4-tetrahydronaphthalen-2-yl dimethylcarbamate] | – | 7.7 µM |
| CC(C)[C@H]1c2ccc(F)cc2CC[C@@]1(CCN(C)CCCc1nc2c(C(F)(F)F)cc(C(F)(F)F)cc2[nH]1)OC(=O)N1CCOCC1 [Example 8, (1S,2S)-2-(2-((3-(4,6-Bis(trifluoromethyl)-1H-benzo[d]imidazol-2-yl)propyl)(methyl)amino)ethyl)-6-fluoro-1-isopropyl-1,2,3,4-tetrahydronaphthalen-2-yl morpholine-4-carboxylate] | – | 6.8 µM |
| CC(C)[C@H]1c2ccc(F)cc2CC[C@@]1(CCN(C)CCC(C)(C)c1nc2ccccc2[nH]1)OC(=O)N1CCOCC1 [Example 9, (1S,2S)-2-(2-((3-(1H-Benzo[d]imidazol-2-yl)-3-methylbutyl)(methyl)amino)ethyl)-6-fluoro-1-isopropyl-1,2,3,4-tetrahydronaphthalen-2-yl morpholine-4-carboxylate] | – | 68 µM |
| CNC(=O)O[C@]1(CCN(C)CCC(C)(C)c2nc3ccccc3[nH]2)CCc2cc(F)ccc2[C@@H]1C(C)C [Example 10, (1S,2S)-2-(2-((3-(1H-Benzo[d]imidazol-2-yl)-3-methylbutyl)(methyl)amino)ethyl)-6-fluoro-1-isopropyl-1,2,3,4-tetrahydronaphthalen-2-yl methylcarbamate] | – | 9.5 µM |
| CC(C)[C@H]1c2ccc(F)cc2CC[C@@]1(CCN(C)CCC(C)(C)c1nc2ccccc2[nH]1)OC(=O)NCCN(C)C [Example 11, (1S,2S)-2-(2-((3-(1H-Benzo[d]imidazol-2-yl)-3-methylbutyl)(methyl)amino)ethyl)-6-fluoro-1-isopropyl-1,2,3,4-tetrahydronaphthalen-2-yl (2-(dimethylamino)ethyl)carbamate] | – | 2.5 µM |
| COCCNC(=O)O[C@]1(CCN(C)CCC(C)(C)c2nc3ccccc3[nH]2)CCc2cc(F)ccc2[C@@H]1C(C)C [Example 12, (1S,2S)-2-(2-((3-(1H-Benzo[d]imidazol-2-yl)-3-methylbutyl)(methyl)amino)ethyl)-6-fluoro-1-isopropyl-1,2,3,4-tetrahydronaphthalen-2-yl (2-methoxyethyl)carbamate] | – | 12 µM |
| CC(C)[C@H]1c2ccc(F)cc2CC[C@@]1(CCN(C)CCC(C)(C)c1nc2ccccc2[nH]1)OC(=O)NCCN1CCCC1 [Example 13, (1S,2S)-2-(2-((3-(1H-Benzo[d]imidazol-2-yl)-3-methylbutyl)(methyl)amino)ethyl)-6-fluoro-1-isopropyl-1,2,3,4-tetrahydronaphthalen-2-yl (2-(pyrrolidin-1-yl)ethyl)carbamate] | – | 4.6 µM |
| CCN(CC)CCNC(=O)O[C@]1(CCN(C)CCC(C)(C)c2nc3ccccc3[nH]2)CCc2cc(F)ccc2[C@@H]1C(C)C [Example 14, (1S,2S)-2-(2-((3-(1H-Benzo[d]imidazol-2-yl)-3-methylbutyl)(methyl)amino)ethyl)-6-fluoro-1-isopropyl-1,2,3,4-tetrahydronaphthalen-2-yl (2-(diethylamino)ethyl)carbamate] | – | 3.8 µM |
| Cc1ccc(C)c2[nH]c(CCCN(C)CC[C@@]3(OC(=O)N(C)C)CCc4cc(F)ccc4[C@@H]3C(C)C)nc12 [Example 16, (1S,2S)-2-(2-((3-(4,7-dimethyl-1H-benzo[d]imidazol-2-yl)propyl)(methyl)amino)ethyl)-6-fluoro-1-isopropyl-1,2,3,4-tetrahydronaphthalen-2-yl dimethylcarbamate] | – | 6 µM |
| Cc1ccc(C)c2[nH]c(CCCN(C)CC[C@]3(OC(=O)N4CCOCC4)CCc4cc(F)ccc4[C@H]3C(C)C)nc12 [Example 17, (1R,2R)-2-(2-((3-(4,7-Dimethyl-1H-benzo[d]imidazol-2-yl)propyl)(methyl)amino)ethyl)-6-fluoro-1-isopropyl-1,2,3,4-tetrahydronaphthalen-2-yl morpholine-4-carboxylate] | – | 4.3 µM |
| CC(C)[C@H]1c2ccc(F)cc2CC[C@@]1(CCN(C)CCC1(c2nc3ccccc3[nH]2)CC1)OC(=O)N1CCOCC1 [Example 19, (1S,2S)-2-(2-((2-(1-(1H-Benzo[d]imidazol-2-yl)cyclopropyl)ethyl)(methyl)amino)ethyl)-6-fluoro-1-isopropyl-1,2,3,4-tetrahydronaphthalen-2-yl morpholine-4-carboxylate] | – | 23 µM |
| CNC(=O)OC1(CCN(C)CCCc2nc3c(C)ccc(C)c3[nH]2)COc2cc(F)ccc2[C@@H]1C(C)C (stereo partly drawn) [Example 21A, (4S)-3-(2-((3-(4,7-Dimethyl-1H-benzo[d]imidazol-2-yl)propyl)(methyl)amino)ethyl)-7-fluoro-4-isopropylchroman-3-yl methylcarbamate] | – | 7 µM |
| CNC(=O)OC1(CCN(C)CCCc2nc3c(C)ccc(C)c3[nH]2)COc2cc(F)ccc2[C@@H]1C(C)C (stereo partly drawn) [Example 21B, (4S)-3-(2-((3-(4,7-Dimethyl-1H-benzo[d]imidazol-2-yl)propyl)(methyl)amino)ethyl)-7-fluoro-4-isopropylchroman-3-yl methylcarbamate] | 9 µM | – |
| COCC(=O)O[C@]1(CCN(C)CCCc2nc3ccccc3[nH]2)CCc2cc(F)ccc2[C@@H]1C(C)C [Mibefradil, mibefradil, reference compound] | – | 12 µM |

From patent US11130750B2, “Calcium channel inhibitors” (Cavion, Inc., priority 2017, dated 2021)
